This note sets out measurements from patent US8906865B2, “Treatment of inflammation and/or endotoxic shock” (ISIS Innovation Limited, priority 2007, dated 2014).

Holding throughout (type): cell-based, mouse
In test [1] the test system is PMΦ (peritoneal macrophages). The test can be described thus: Macrophage chemotaxis assay (modified Boyden chamber). Conditions: for Macrophage chemotactic activity: migration over 4 h, compared with C140 and RANTES 25 ng/ml. Here is the method:
PMθ (0.5×10^6) were allowed to migrate towards chemoattractant (Chemerin140 or Chemerin peptides) in the bottom well of a modified Boyden chamber over 4 h. Filters were fixed in 4% formalin, then migrated cell nuclei were stained with DAPI and visualised. Serum free media (SFM) were used as a negative control and the macrophage chemoattractant RANTES (25 ng/ml; 3 nM) as a positive control. The graphs indicate mean Migration Index (Chemoattractant % threshold area/SFM % threshold area)±SEM for each treatment group (n=5-6). p<0.001 ***; p<0.01 **; p<0.05 * relative to SFM treated wells.
PMθ were recruited following a 4 day peritoneal stimulation with BioGEL beads. Peritoneal cavities of male C57B16/J mice were lavaged with 5 ml PBS-2 mM EDTA. Cells were centrifuged and resuspended in RPMI supplemented with 0.5% BSA and 25 mM Hepes. Cells (0.5×10^6) were allowed to migrate towards chemoattractant (C140, C17m or C17m+C140) in the bottom well over 4 h. Filters were fixed in 4% formalin, then nuclei were stained with DAPI and visualised. Serum free media was used as a negative control (−/−). Cells were preincubated with Pertussis toxin (PTX) for 30 mins before the chemotaxis assay. The bar graphs in FIG. 11 show the mean Migration Index±SEM for each treatment group. Each bar represents at least triplicate wells and at least 3 pictures taken per treatment. p<0.001 ***; p<0.01 **; p<0.05 * relative to SFM treated wells unless otherwise stated.
(§1) Cell migration was assessed by use of transwell membranes (ChemoTX, 6-mm diameter, 8-μm pore size). Briefly, BioGEL-elicited cells were harvested and placed on transwell membranes (250 000 cells/membrane in RPMI supplemented with 25 mM Hepes and 0.1% bovine serum albumin. Cells were allowed to migrate toward Chemerin peptides (1 pM-100 nM) for 4 h. Signal transduction via G protein-coupled receptors was blocked by preincubating cells with pertussis toxin (PTX, 200 ng/ml, Sigma-Aldrich) for 30 mins before placing cells on transwell membranes. Migrated cells on the underside of membranes were fixed (3% formaldehyde) and stained with DAPI. Migration was quantified as total pixel count of DAPI stained nuclei under the confocal microscope (2 photos/membrane and a minimum of 3 replicate wells per treatment). Images were analyzed using Metamorph Offline software to determine percentage threshold areas (TA) occupied by migrated cells. Migration indices were obtained by dividing treatment TA by serum-free media TA. For secondary chemotaxis assays ChemoTx 3-mm diameter, 8-μm pore membranes were used with 50 000 cells/membrane.

The subject of test [2] is PMΦ (peritoneal macrophages). Nature of the test: Secondary chemotaxis assay towards conditioned media from treated macrophages. The note with it: relative to LPS/IFNγ conditioned medium.
From the text: Given the well established role of MΦ-derived chemoattractants in the recruitment of immune cells during inflammation (Glabinski, A. R., et al., (1998). Neuroimmunomodulation 5:166-171; Huang, D. J. et al., (2001). J. Exp. Med. 193:713-726), conditioned media was used from untreated MΦ and MΦ treated with chemerin+LPS/IFNγ, C15+LPS/IFNγ and LPS/IFNγ alone in chemotaxis assays to assess how suppression of MΦ activation by chemerin and the synthetic C-terminal peptide, C15 might affect further MΦ recruitment (See FIG. 4H).
Conditioned media from macrophages treated with C140+LPS/IFNγ, C15m+LPS/IFNγ, C17m+LPS/IFNγ and LPS/IFNγ alone were used in secondary chemotaxis assays to assess the potential pathophysiological repercussions associated with suppression of macrophage activation by C140 and its C-terminal peptides.
Cells (0.5×10^6) were allowed to migrate towards chemoattractant (Chemerin peptides) or conditioned media in the bottom well of a modified Boyden chamber over 4 h. Serum free media (SFM) was used as a negative control. Filters were fixed in 4% formalin, then nuclei were stained with DAPI and visualised. Bar graphs indicate mean Migration Index (Chemoattractant % threshold area/SFM % threshold area)±SEM for each treatment group. Each bar represents at least triplicate wells and 6 pictures taken per treatment. p<0.001 ***; p<0.01 ** significance is relative to LPS/IFNγ conditioned media unless otherwise stated. AB refers to anti-murine Chemerin antibody.
as §1

The test system of test [3] is PMθ stimulated with Zymosan. The test can be described thus: TNFα secretion by murine macrophages stimulated with Zymosan (ELISA). Conditions: 1 pM pre-treatment 1 h, Zymosan 15 h. Here is the method: PMθ were cultured under various conditions: Untreated; Zymosan for 15 h; Chemerin (1 pM) pre-treatment for 1 h+Zymosan for 15 h. The bar graphs show mean expression of TNFα as determined by ELISA±SEM. Experiments were performed with triplicate determinations for each treatment. Representative data from three independent experiments employing cells from different donors are shown in FIG. 12. p<0.001 ***; p<0.01 ** relative to Zymosan-treated samples. Dexa refers to dexamethasone ([…]), nd refers to below the lower limit of detection (0.25 ng/ml).

Test [4] relates to PMθ (peritoneal macrophages). The test can be described thus: Checkerboard analysis (chemotaxis versus chemokinesis). The note with it: for Chemotaxis versus chemokinesis (FIG. 13): C140 10-1000 pM, C15m 10-1000 pM. The protocol: Checkerboard analysis allows differentiation between chemotaxis and chemokinesis. Chemotaxis is indicated by migration toward a higher concentration of chemoattractant in the lower well. Chemokinesis refers to increased non-directional cell movement and occurs regardless of the concentration gradient present. Checkerboard analysis was performed by pre-incubating cells with C140 (10-500 pM) or C15m (10-1000 pM) and allowing them to migrate towards C140 (10-1000 pM) or C15m (10-1000 pM), respectively in the lower well to form a checkerboard of concentrations.
More specifically, PMθ were recruited following a 4 day peritoneal stimulation with BioGEL beads. Peritoneal cavities of male C57B16/J mice were lavaged with 5 ml PBS-2 mM EDTA. Cells were centrifuged and resuspended in RPMI supplemented with 0.5% BSA and 25 mM Hepes. Cells (0.5×10^6) were incubated with C140 or C15m for 30 mins before the chemotaxis assay and then allowed to migrate towards chemoattractant in the bottom well over 4 h. Filters were fixed in 4% formalin, then nuclei were stained with DAPI and visualised. Serum free media (SFM) was used as a negative control (−/−) and the CC chemokine RANTES as a positive control (25 ng/ml). The bar graphs in FIG. 13 show the mean Migration Index±SEM for each treatment group. Each bar represents at least triplicate wells and at least 3 pictures taken per treatment. p<0.001 *** relative to SFM-treated wells.

Turning to “AGEDPHGYFLPGQFAFS (listed as Mus sp.) [C17m]”, the “Effect of co-administration on C140-induced macrophage migration (FIG. 11)” value in test [1] (C17m + C140 in bottom well, 4 h) is recorded as “did not appear to affect macrophage migration to C140”. The Macrophage chemotactic activity result in test [1] is “no chemotactic activity”. Also, the “Macrophage chemotaxis towards conditioned media from treated + LPS/IFNγ macrophages (FIG. 5)” value in test [2] was “reduced chemotaxis”. Besides, in test [3], the “Suppression of Zymosan-induced TNF expression (FIG. 12)” value is given as 30%.
For the molecule “AGEDPHGYFLPGQFA (listed as Mus sp.) [C15]”, the Macrophage chemotactic activity entry in test [1] is listed as “little chemotactic activity”. Also, the “Concentration of maximal macrophage migration” value in test [1] (tested 1 pM-100 nM) amounted to 100 pM. Further, in test [2], the “Macrophage chemotaxis towards conditioned media from treated + LPS/IFNγ macrophages (FIG. 5)” value is listed as “reduced chemotaxis” and the “Reduction of MΦ chemotaxis towards conditioned media from treated + LPS/IFNγ macrophages (FIG. 4H)” value is recorded as 55%. The “Suppression of Zymosan-induced TNF expression (FIG. 12)” value in test [3] is on record as 21%. Besides, in test [4], the “Induction of macrophage chemotaxis relative to C140” value is listed as “much weaker inducer of macrophage chemotaxis” and the “Chemotaxis versus chemokinesis (FIG. 13)” value is given as “elicit true chemotaxis rather than chemokinesis”.

B1: Chemerin: 140 amino acid mouse Chemerin protein of Sequence ID no: 34 (protein, listed as Mus sp.)
chain: TVGTEPELSETQRRSLQVALEEFHKHPPVQLAFQEIGVDRAEEVLFSAGTFVRLEFKLQQTNCPKKDWKKPECTIKPNGRRRKCLACIKMDPKGKILGRIVHCPILKQGPQDPQELQCIKIAQAGEDPHGYFLPGQFAFS
Take B1: in test [2], the “Macrophage chemotaxis towards conditioned media from treated + LPS/IFNγ macrophages (FIG. 5)” value is recorded as “reduced chemotaxis” and the “Reduction of MΦ chemotaxis towards conditioned media from treated + LPS/IFNγ macrophages (FIG. 4H)” value was 49%. In addition, in test [4], the “Chemotaxis versus chemokinesis (FIG. 13)” value is “elicit true chemotaxis rather than chemokinesis”.
